Biological target: human NOP receptor (Homo sapiens, UniProt P41146)
Test: Calcium mobilization assay in CHO cells stably coexpressing the NOP receptor and the Gαqi5 chimeric G protein
Settings: CHOhNOP + Gαqi5 cells; Fluo-4 AM, FlexStation II, 37 °C; four-parameter logistic fit; mean of 5 or at least 6 experiments in duplicate
Protocol: Drugs and reagents: The reagents used were purchased from Sigma-Aldrich (St. Louis, MO, USA) and Thermo Fisher Scientific (Waltham, MA, USA). […] Concentrated solutions of ligands were made in distilled water (1 mM) and kept at −20 °C until use. Successive dilutions of ligands were made in Hank’s Balanced Salt Solution (HBSS) and HEPES buffer (containing 0.005% Bovine Serum Albumine (BSA)).
Cell Culture: Chinese Hamster Ovary (CHO) cells stably coexpressing the NOP opioid receptors and the Gαqi5 protein were used. […]
Calcium Mobilization Assay: Calcium mobilization studies were performed using the automated fluorometer microplate reader FlexStation II (Molecular Devices, Sunnyvale, CA, USA), which was employed to detect changes in fluorescence intensity. […] After placing both plates (cell culture and compound plate) into the fluorometric imaging plate reader FlexStation II, fluorescence changes were measured. […] Maximum change in fluorescence, expressed as percent over the baseline fluorescence, was used to determine agonist response.
Data analysis and terminology: All data were analyzed using Graph Pad Prism 6.0 (La Jolla, CA, USA). […] Data were expressed as mean ± sem of 5 experiments performed in duplicate. Agonist effects were expressed as the maximum change in percent over the baseline fluorescence. Baseline fluorescence was measured in wells treated with vehicles. […]

Chain of human NOP receptor (P41146 whole entry): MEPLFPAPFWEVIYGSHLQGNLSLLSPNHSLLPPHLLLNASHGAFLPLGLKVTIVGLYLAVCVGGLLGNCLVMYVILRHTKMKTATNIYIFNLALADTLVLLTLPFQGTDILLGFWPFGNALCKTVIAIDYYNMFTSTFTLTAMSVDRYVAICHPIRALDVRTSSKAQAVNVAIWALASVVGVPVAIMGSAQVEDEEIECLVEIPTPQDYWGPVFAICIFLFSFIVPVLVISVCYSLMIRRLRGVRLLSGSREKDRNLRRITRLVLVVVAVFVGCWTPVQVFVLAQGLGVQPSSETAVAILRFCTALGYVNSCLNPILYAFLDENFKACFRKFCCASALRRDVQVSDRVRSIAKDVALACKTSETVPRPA

[Dmt^1]N/OFQ(1-13)-NH2
pEC50 (CL95%): 8.35 (7.94–8.77)

Reference: paper PMC10675785, “(L)-Monomethyl Tyrosine (Mmt): New Synthetic Strategy via Bulky ‘Forced-Traceless’ Regioselective Pd-Catalyzed C(sp^2)–H Activation” (Pharmaceuticals, 2023)
